Measurements from US9982033B2, “Factor VIII polypeptide titers in cell cultures” (Novo Nordisk A/S, priority 2007, dated 2018).

What was measured:
[1] = test system: BDD Factor VIII producing cells (1C5-SF cell line); test: Supplementing serum-free medium of BDD Factor VIII producing cells with O-phospho-L-serine and/or a plant hydrolysate; type: cell-based; settings: O-phospho-L-serine 20 mM and/or plant hydrolysate 5 mg/ml, four days after seeding
Protocol: ELISA: Strip wells are pre-coated with sheep polyclonal antibody to human Factor VIII. Samples are diluted and applied to the wells. The Factor VIII antigen present binds to the coated antibody. After washing away unbound material, peroxidase-labeled sheep detecting antibody is applied and allowed to bind to the captured Factor VIII. The wells are again washed and a solution of TMB (the peroxidase substrate tetramethylbenzidine) is applied and allowed to react for a fixed period of time. A blue color develops which changes to yellow upon quenching the reaction with acid. The color formed is measured spectrophotometrically in a microplate reader at 450 nm. The absorbance at 450 nm is directly proportional to the quantity of Factor VIII antigen captured onto the well (VisuLize, FVIII antigen kit, Affinity biologicals). […]
F25 ELISA: ELISA: Strip wells are pre-coated with sheep polyclonal antibody to human Factor VIII. […] The color formed is measured spectrophotometrically in a microplate reader at 450 nm. The absorbance at 450 nm is directly proportional to the quantity of Factor VIII antigen captured onto the well. […]
The total Factor VIII antigen content of each culture was determined by sandwich ELISA. […]

[2] = test system: Factor VIII producing cells; test: Supplementing serum-free cell culture medium of Factor VIII producing cells with OPLS (high-cell density perfusion model); type: cell-based, Chinese Hamster; settings: for Factor VIII productivity / Factor VIII protein specific activity: 24 hours, 35° C.
Excerpt: Cell line: The cell line used for transfection, dhfr− CHO cells DUKX-B11 cells (Urlaub, G. & Chasin, L. A. (1980) Proc. Natl. Acad. Sci. USA 77, 4216-4220), was adapted to grow in suspension cultures using serum-free medium supplemented with ribonucleosides and deoxyribonucleosides.
Expression vector: Factor VIII transcription is achieved using an adenovirus-SV40 promoter and a selection by a di-hydrofolate reductase selection marker. The expressed Factor VIII molecule consist of the heavy chain (HC) and light chain (LC) of Factor VIII connected with a small linker derived from the B-domain. The B-domain has been removed, since this allows for higher expression of Factor VIII and the biological activity of Factor VIII is retained.
Cell culturing during serum free medium supplementation experiments: For media supplement experiments cells were cultivated in a high-cell density perfusion model in 50 mL shaker tubes with vented cap at 35° C. in serum free medium, as described below. Cells were cultivated in large shaker flasks at 37° C. Cell viability was measured at cell harvest, and this was always >95%. Harvested cells were re-suspended into fresh medium. 2.5 mL of the harvested and re-suspended cells was added to 2.5 mL of fresh medium containing the supplement to give a total volume of 5 mL, with a concentration of 1×10^7 cells/mL. Shaker tubes were then placed in shaker at 35° C. and 250 rpm. After 24 hours, samples were assayed for cell density, viability, CoA, ELISA and Factor VIII protein integrity by Western blot.
CoA assay (Factor VIII activity assay): In the presence of calcium and phospholipids, Factor X is activated to Factor Xa by Factor IXa. This generation is greatly stimulated by Factor VIII, which may be considered as a cofactor in this reaction. By using optimal amounts of Ca^2+ and phospholipids and an excess of Factors IXa and X, the rate of activation of Factor X is solely dependent on the amount of Factor VIII. Factor Xa hydrolyses the chromogenic substrate S-2765 thus liberating the chromophoric group, pNA. The colour is then read photometrically at 405 nm. The generated Factor Xa and thus the intensity of colour is proportional to the Factor VIII activity in the sample. Hydrolysis of S-2765 by thrombin formed is prevented by the addition of the synthetic thrombin inhibitor, I-2581, together with the substrate (Chromogenix Coatest SP Factor VIII, diaPharma)
ELISA: Strip wells are pre-coated with sheep polyclonal antibody to human Factor VIII. Samples are diluted and applied to the wells. The Factor VIII antigen present binds to the coated antibody. After washing away unbound material, peroxidase-labeled sheep detecting antibody is applied and allowed to bind to the captured Factor VIII. The wells are again washed and a solution of TMB (the peroxidase substrate tetramethylbenzidine) is applied and allowed to react for a fixed period of time. A blue color develops which changes to yellow upon quenching the reaction with acid. The color formed is measured spectrophotometrically in a microplate reader at 450 nm. The absorbance at 450 nm is directly proportional to the quantity of Factor VIII antigen captured onto the well (VisuLize, FVIII antigen kit, Affinity biologicals). The assay is calibrated using purified B domain deleted Factor VIII.
OPLS was supplemented to serum free cell culture medium in the indicated concentration according to the experimental details described under materials and methods. The results can be seen from the below Table 3 and from FIGS. 2A and 2B.

[3] = OPLS 0.03 mM in serum free medium
[4] = OPLS 0.1 mM in serum free medium
[5] = OPLS 0.3 mM in serum free medium
[6] = OPLS 10 mM in serum free medium
[7] = OPLS 30 mM in serum free medium

N[C@@H](COP(=O)(O)O)C(=O)O [OPLS, O-Phospho-L-Serine]
proportion of Factor VIII with intact heavy chain C-terminal in the medium ([1]; F25 ELISA versus total Factor VIII antigen): increased
quality of recombinant Factor VIII from cell cultures (specific activity) ([1]; CDM4CHO medium, FIG. 3A-C): improved
yield of recombinant Factor VIII from cell cultures ([1]; CDM4CHO medium, FIG. 3A-C): improved
Factor VIII productivity [2, 3]: 0.068 pcd
Factor VIII protein specific activity [2, 3]: 11.8 U/microg
Factor VIII productivity [2, 4]: 0.062 pcd
Factor VIII protein specific activity [2, 4]: 12.8 U/microg
Factor VIII productivity [2, 5]: 0.052 pcd
Factor VIII protein specific activity [2, 5]: 12.2 U/microg
Factor VIII productivity ([2]; OPLS 1 mM in serum free medium): 0.058 pcd
Factor VIII protein specific activity ([2]; OPLS 1 mM in serum free medium): 12.6 U/microg
Factor VIII productivity ([2]; OPLS 3 mM in serum free medium): 0.066 pcd
Factor VIII protein specific activity ([2]; OPLS 3 mM in serum free medium): 15.8 U/microg
Factor VIII productivity [2, 6]: 0.10 pcd
Factor VIII protein specific activity [2, 6]: 15.4 U/microg
Factor VIII productivity [2, 7]: 0.18 pcd
Factor VIII protein specific activity [2, 7]: 15.0 U/microg
specific productivity of Factor VIII producing cells ([2]; conclusion in words, FIG. 2A): increases
specific activity of Factor VIII ([2]; conclusion in words, FIG. 2B): increases
